Converted amounts (≈) assume the structure as drawn. Where two headings read alike, the source gives them in different places.
Columns and labels:
Type in all cases: cell-based
Klebsiella = assay: in vitro agar dilution assay (MIC), Klebsiella
Strep. D = assay: in vitro agar dilution assay (MIC), Strep. D; conditions: for MIC: read-out: Agar Dilution MIC
Description: (§1) A typical and preferred compound provided by this invention is 7-(thieno[3,2-b]thien-2-yl)glycylamido-3-methyl-3-cephem-4-carboxylic acid, the compound illustrated in Example 1. The antibacterial activity of this compound and others of the invention has been determined in standard in vitro agar dilution assays against a variety of gram positive microorganisms. The following Tables present typical minimum inhibitory concentrations (MIC's) in μg/ml for several compounds of the invention when evaluated against the indicated microorganisms. MIC's for several known compounds are also presented for comparison.

Staph. epi = assay: in vitro agar dilution assay (MIC), Staph. epi; conditions: read-out: Agar Dilution MIC
Strep. PN = assay: in vitro agar dilution assay (MIC), Strep. PN; conditions: read-out: Agar Dilution MIC
Description: as §1

H. influ. = assay: in vitro agar dilution assay (MIC), H. influ.
Strep. A = assay: in vitro agar dilution assay (MIC), Strep. A; conditions: read-out: Agar Dilution MIC
Description: as §1

Staph. aureus = assay: in vitro agar dilution assay (MIC), Staph. aureus; conditions: Staphylococcus aureus
E. coli = assay: in vitro agar dilution assay (MIC), E. coli; conditions: Escherichia coli
[1] = Klebsiella strain KAE, read-out: Agar Dilution MIC
[2] = Klebsiella strain X26, read-out: Agar Dilution MIC
[3] = Klebsiella strain X68, read-out: Agar Dilution MIC
[4] = Staph. aureus strain X400, read-out: Agar Dilution MIC
[5] = read-out: Agar Dilution MIC, Staph. aureus strain S13E
[6] = Staph. aureus strain X1.1, read-out: Agar Dilution MIC
[7] = Staph. aureus strain V41, read-out: Agar Dilution MIC

SMILES | MIC (Klebsiella; [1]) [µg/mL] | MIC (Klebsiella; [2]) [µg/mL] | MIC (Klebsiella; [3]) [µg/mL] | MIC (Strep. D; Strep. D strain 2041) [µg/mL] | MIC (Strep. D; Strep. D strain X66) [µg/mL] | MIC (Staph. epi; Staph. epi strain 222) [µg/mL] | MIC (Staph. epi; Staph. epi strain EPI1) [µg/mL] | MIC (Strep. PN; Strep. PN strain PARK) [µg/mL] | MIC (H. influ.; H. influ. strain C.L.) [µg/mL] | MIC (Strep. A; Strep. A strain C203) [µg/mL] | MIC (Staph. aureus; [4]) [µg/mL] | MIC (Staph. aureus; read-out: Agar Dilution MIC) [µg/mL] | MIC (Staph. aureus; [5]) [µg/mL] | MIC (Staph. aureus; [6]) [µg/mL] | MIC (E. coli; E. coli strain EC14) [µg/mL] | MIC (E. coli; E. coli strain N10) [µg/mL] | MIC (E. coli; E. coli strain TEM) [µg/mL] | MIC (H. influ.; H. influ. strain 76) [µg/mL] | MIC (Staph. aureus; [7]) [µg/mL] | further results
CC1=C(C(=O)O)N2C(=O)[C@@H](NC(=O)[C@@H](N)c3cc4sccc4s3)[C@H]2SC1 [Ex. 1B, 7-L-(thieno[3,2-b]thien-2-yl)-glycylamido-3-methyl-3-cephem-4-carboxylic acid] | > 64 | > 64 | > 64 | > 64 | > 64 | 16 (≈ 39.1 µM) | 64 (≈ 156 µM) | 16 (≈ 39.1 µM) | 64 (≈ 156 µM) | 16 (≈ 39.1 µM) | > 64 | 32 (≈ 78.1 µM) | 64 (≈ 156 µM) | 8 (≈ 19.5 µM) | > 64 | > 64 | > 64 | – | – | –
CC1=C(C(=O)O)N2C(=O)[C@@H](NC(=O)[C@H](N)c3ccccc3)[C@H]2SC1 [Cephalexin, reference compound] | – | – | – | – | – | – | 32 (≈ 92.1 µM) | – | – | – | – | – | 128 (≈ 368 µM) | – | 4 (≈ 11.5 µM) | 8 (≈ 23 µM) | 8 (≈ 23 µM) | – | – | MIC (Klebsiella; read-out: Agar Dilution MIC, Klebsiella strain KAE): 128 µg/mL (≈ 368 µM); MIC (Klebsiella; read-out: Agar Dilution MIC, Klebsiella strain X26): 4 µg/mL (≈ 11.5 µM); MIC (Klebsiella; read-out: Agar Dilution MIC, Klebsiella strain X68): 8 µg/mL (≈ 23 µM); Agar Dilution MIC (Strep. D; Strep. D strain 2041): 128 µg/mL; MIC (Strep. D): 128 µg/mL (≈ 368 µM); MIC (Staph. epi): 8 µg/mL (≈ 23 µM); MIC (Strep. PN): 2 µg/mL (≈ 5.76 µM); MIC (Strep. A): 0.5 µg/mL (≈ 1.44 µM)
CC1(C)S[C@@H]2[C@H](NC(=O)[C@H](N)c3ccccc3)C(=O)N2[C@H]1C(=O)O [Ampicillin, reference compound] | – | 16 (≈ 45.8 µM) | 16 (≈ 45.8 µM) | 2 (≈ 5.72 µM) | – | – | 8 (≈ 22.9 µM) | 0.03 (≈ 0.0859 µM) | 0.5 (≈ 1.43 µM) | 0.03 (≈ 0.0859 µM) | – | – | 64 (≈ 183 µM) | – | 4 (≈ 11.4 µM) | 8 (≈ 22.9 µM) | – | 16 (≈ 45.8 µM) | – | MIC (Strep. D): 4 µg/mL (≈ 11.4 µM)
CC1=C(C(=O)O)N2C(=O)[C@@H](NC(=O)[C@@H](N)c3cc4ccsc4s3)[C@H]2SC1 [Ex. 3B, 7-L-(thieno[2,3-b]thien-2-yl)-glycylamido-3-methyl-3-cephem-4-carboxylic acid] | > 64 | 16 (≈ 39.1 µM) | > 64 | > 64 | > 64 | 2 (≈ 4.88 µM) | 8 (≈ 19.5 µM) | 2 (≈ 4.88 µM) | 16 (≈ 39.1 µM) | 1 (≈ 2.44 µM) | > 64 | – | 64 (≈ 156 µM) | 1 (≈ 2.44 µM) | > 64 | > 64 | > 64 | 1 (≈ 2.44 µM) | 64 (≈ 156 µM) | –
CC1=C(C(=O)O)N2C(=O)[C@@H](NC(=O)[C@H](N)c3cc4sccc4s3)[C@H]2SC1 [Ex. 1A, 7-D-(thieno[3,2-b]thien-2-yl)-glycylamido-3-methyl-3-cephem-4-carboxylic acid] | > 64 | 8 (≈ 19.5 µM) | > 64 | > 64 | > 64 | 2 (≈ 4.88 µM) | 16 (≈ 39.1 µM) | 1 (≈ 2.44 µM) | 64 (≈ 156 µM) | 0.25 (≈ 0.61 µM) | > 64 | 32 (≈ 78.1 µM) | 64 (≈ 156 µM) | 0.5 (≈ 1.22 µM) | > 64 | > 64 | > 64 | 2 (≈ 4.88 µM) | – | –
CC1=C(C(=O)O)N2C(=O)[C@@H](NC(=O)[C@H](N)c3cc4ccsc4s3)[C@H]2SC1 [Ex. 3A, 7-D-(thieno[2,3-b]thien-2-yl)-glycylamido-3-methyl-3-cephem-4-carboxylic acid] | > 64 | 8 (≈ 19.5 µM) | > 64 | > 64 | > 64 | 1 (≈ 2.44 µM) | 4 (≈ 9.77 µM) | 0.5 (≈ 1.22 µM) | – | 0.25 (≈ 0.61 µM) | > 64 | 32 (≈ 78.1 µM) | 16 (≈ 39.1 µM) | 0.5 (≈ 1.22 µM) | 64 (≈ 156 µM) | > 64 | > 64 | 2 (≈ 4.88 µM) | – | –
CC1=C(C(=O)O)N2C(=O)[C@@H](NC(=O)[C@@H](N)c3cc4sc(Cl)cc4s3)[C@H]2SC1 [Ex. 2A, 7-L-(5-chlorothieno[3,2-b]thien-2-yl)glycylamido-3-methyl-3-cephem-4-carboxylic acid] | > 64 | 64 (≈ 144 µM) | > 64 | > 64 | > 64 | 2 (≈ 4.5 µM) | 16 (≈ 36 µM) | 2 (≈ 4.5 µM) | 64 (≈ 144 µM) | 1 (≈ 2.25 µM) | > 64 | – | 32 (≈ 72.1 µM) | 1 (≈ 2.25 µM) | > 64 | > 64 | > 64 | 2 (≈ 4.5 µM) | 64 (≈ 144 µM) | –
CC1=C(C(=O)O)N2C(=O)[C@@H](NC(=O)[C@H](N)c3cc4sc(Cl)cc4s3)[C@H]2SC1 [Ex. 2B, 7-D-(5-chlorothieno[3,2-b]thien-2-yl)glycylamido-3-methyl-3-cephem-4-carboxylic acid] | > 64 | 16 (≈ 36 µM) | > 64 | 64 (≈ 144 µM) | > 64 | 0.5 (≈ 1.13 µM) | 4 (≈ 9.01 µM) | 0.25 (≈ 0.563 µM) | 32 (≈ 72.1 µM) | 0.125 (≈ 0.282 µM) | > 64 | – | – | 0.25 (≈ 0.563 µM) | > 64 | > 64 | > 64 | 2 (≈ 4.5 µM) | 16 (≈ 36 µM) | –
